Assay results from patent US20030157712A1, “Methods for determining cell responses through EphB receptors” (priority 1997, published 2003).

Experiments:
HRMEC = assay: Endothelial assembly into capillary-like structures (HRMEC); assay type: cell-based, human; conditions: HRMEC on Matrigel, two dimensional in vitro assay, 8 h
Experimental: Endothelial assembly into capillary-like structures. Twelve well plates (Falcon) were coated with thin layers of Matrigel. HRMEC were plated at a density of 4×10^4 cells/well in DME containing 1% fetal bovine serum. Indicated agonists, control peptides, alone, or in combination with the EphB1/Fc antagonist (1000 ng ml^−1) (FIG. 5) were added at the time of plating. Cells were incubated at 37° C. for 8 h and photographed using phase microscopy (magnification 100×) (Diaphot-TMD, Nikon).

[1] = system: human renal microvascular endothelial cells; assay: Solid phase cell attachment assay (HRMEC); assay type: cell-based
Experimental: Solid phase cell attachment assays. Forty-eight-well plates (Falcon) were coated with a layer of nitrocellulose (Schleicher & Schuell) and allowed to air dry as described (47). Coated wells were incubated overnight at 4° C. with PBS containing matrix proteins at the indicated concentrations alone (no addition, NA) or in combination with dimeric EphrinB1/Fc. Two hours prior to assay, wells were washed twice then blocked at 37° C. with 1% BSA. Serum starved cells were harvested in 2 mM EDTA in PBS (HEK293) or recovered by trypsinization (HRMEC), washed twice in serum free medium containing 1% BSA, then plated at a density of 0.7-1×10^5 cells per well. After incubation at 37° C. for 1 hour (or as specified), unattached cells were dislodged by 5 brisk slaps of the plate on a horizontal surface. Wells were gently washed with PBS until cells were […] to albumin-coated wells. Adherent cells were fixed with 2% glutaraldehyde, stained with 0.5% crystal violet (in EtOH), and quantified by OD reading at 570 nm. In experiments using competitive peptides or blocking antibodies, cells were preincubated with the indicated peptides (100 μM) or antibodies (10 μg/ml) for 15 min at RT before plating. Results representative of three independent experiments are given as OD values and represent the mean of duplicate or triplicate wells±SEM. […]

CCCCCCCCCCCCCC(=O)O[C@@H]1[C@@H](C)[C@@]2(O)[C@@H](C=C(CO)C[C@]3(O)C(=O)C(C)=C[C@@H]23)[C@@H]2C(C)(C)[C@]12OC(C)=O [phorbol myristate acetate, reference compound]
endothelial capillary-like assembly (HRMEC): stimulated

GRGDSPK [RGD peptide, reference compound]
support of the ephrin-B1 induced increase in endothelial attachment ([1]; peptide-coated 48-well plates): sufficient

fibrinogen [reference compound]
threshold surface density of adsorbed matrix protein required to promote attachment ([1]; nitrocellulose surface): approximately 1 ug/cm^2
